Patent publication US20190359547A1, “METHOD OF RETARDING AN ETHYLENE RESPONSE” (CURTIN UNIVERSITY OF TECHNOLOGY, priority 2016, published 2019)

Key:
[1] = system: 'Tegan Blue' Japanese plum fruit; experiment: climacteric ethylene level in 'Tegan Blue' plum fruit after fumigation; type: in vivo; conditions: for level of climacteric ethylene, suppressed, in comparison to the solely ethylene treated fruit: 'Tegan Blue' plum, ethylene only 4.73 μmol kg^-1 h^-1
[2] = system: 'Arctic Pride' nectarine fruit; experiment: climacteric ethylene level in 'Arctic Pride' nectarine fruit after fumigation; type: in vivo; conditions: BC 50 nLL^-1 + ethylene, ethylene only 0.414 μmol kg^-1 h^-1
[3] = system: 'Tegan Blue' Japanese plum fruit; experiment: climacteric respiration (CO2 production) in 'Tegan Blue' plum fruit; type: in vivo; conditions: ethylene only 0.72 mmol CO2 kg^-1 h^-1
[4] = system: 'Arctic Pride' nectarine fruit; experiment: climacteric respiration (CO2 production) in 'Arctic Pride' nectarine fruit; type: in vivo; conditions: ethylene only 0.31 mmol CO2 kg^-1 h^-1
WX17 wax flower = experiment: flower/bud abscission in WX17 wax flower; type: in vivo, Wax flower (Chamelaucium Desf.); conditions: BC 100 nLL^-1 fumigation followed by ethylene exposure (10 μLL^-1)
Protocol: (§1) To evaluate the effects of BC and NC on flower abscission, flowering stems of Wax flower (Chamelaucium Desf.) (WX17, WX73 and WX107) were collected from mature bushes grown at Department of Agriculture and Food Western Australia (DAFWA), Perth (31° 58′ 55″ S/115° 51′ 47″ E). Collected stems were immediately placed upright in buckets with water and recut at 20-25 cm in length (from the cut end to the most extreme opened-flowers). The flower stalks were treated similarly as the fruits with BC (0-100 nLL^−1) or NC (0-100 nLL^−1) and ethylene. The experiments were laid out by following CRD design, having five replications for each treatment and five stalks in each replication. During the treatment period, the flower stalks were placed in small plastic bottles with distilled water. A cone made of nylon mesh was placed at the base of the stalks to check the number of abscised flowers. […]
(§2) The experimental data were analysed following one-way analysis of variance (ANOVA) by using Genstat 13 (release 13.1; Lawes Agricultural Trust, Rothamsted Experimental Station, Harpenden, UK). The effects of various treatments and their interactions were assessed and least significant differences (Fisher's LSD) were calculated by F test at 5% level of significance.

WX73 wax flower = experiment: flower/bud abscission in WX73 wax flower; type: in vivo, Wax flower (Chamelaucium Desf.)
Protocol: as §1, §2

[5] = stability at room temperature; type: physicochemical
solubility in water = type: physicochemical

Structure (SMILES)	level of climacteric ethylene, suppressed, in comparison to the solely ethylene treated fruit ([1]; 100 nLL^-1 BC fumigation 18 hr + ethylene (10 μL L^-1, 24 hr))	effect on climacteric ethylene and respiration compared with 1-MCP (1000 nL L^-1) ([1]; BC 100 nL L^-1 versus 1-MCP 1000 nL L^-1, 'Tegan Blue' and 'Fortune' plum, 'Arctic Pride' nectarine)	levels of ethylene, suppressed, than the solely ethylene treated fruit [2]	climacteric respiration, suppressed, than the solely ethylene treated fruit ([3]; BC 100 nLL^-1 + ethylene)	suppression of respiration climacteric in comparison to the solely ethylene treated fruit ([4]; BC 50 nLL^-1 + ethylene)	suppression of respiration climacteric in comparison to the solely ethylene treated fruit ([4]; BC 50 nLL^-1 without ethylene)	rate of flower/bud abscission (WX17 wax flower)	rate of flower/bud abscission (WX73 wax flower; 50 nL L^-1 BC followed by ethylene treatment)	rate of flower/bud abscission (WX73 wax flower; 100 nL L^-1 BC followed by ethylene treatment)	stability [5]	solubility in water (solubility in water)	level of climacteric ethylene, suppressed, in comparison to the solely ethylene treated fruit ([1]; 1000 nLL^-1 1-MCP fumigation 18 hr + ethylene (10 μL L^-1, 24 hr))	climacteric respiration, suppressed, than the solely ethylene treated fruit ([3]; 1-MCP 1000 μLL^-1 + ethylene)
c1ccc2c(c1)C2 [BC, benzocyclopropene]	0.80 fold	non-significant differences	0.63 fold	0.83 fold	0.77 fold	0.71 fold	6.05%	22.43%	28.40%	stable at room temperature for several months	only partially soluble in water	–	–
CC1=CC1 [1-MCP, 1-Methylcyclopropene, reference compound]	–	–	–	–	–	–	–	–	–	–	–	0.70 fold	0.77 fold
